Assay results taken from the OPERA property sets (Mansouri et al. 2018).

settings: not given

SMILES	boiling point	melting point	ready biodegradability	log10 Koa	log10 Koc (L/kg)	log10 vapour pressure (mmHg)	log10 biodegradation half-life (days)	log10 Henry constant (atm·m³/mol)
Oc1c(Cl)cc(Cl)c(Cl)c1Cc1c(O)c(Cl)cc(Cl)c1Cl	479 °C	166 °C	not readily biodegradable	–	–	–	–	–
C1CCCSCC1	174 °C	0.5 °C	–	–	–	–	–	–
Clc1cc2cccc(Cl)c2cc1Cl	–	–	–	7.5	–	–	–	–
O=NN(CCCl)C(=O)NCCCl	–	31 °C	–	–	–	–	–	–
COCC(C)=O	116 °C	–	–	–	–	–	–	–
COS(=O)(=O)[O-].C[n+]1c2ccccc2nc2ccccc21	–	157 °C	–	–	–	–	–	–
CNC(=O)Oc1ccccc1OC(C)C	–	87 °C	readily biodegradable	–	1.67	-5.01	–	–
CC(=O)OCc1ccco1	179 °C	–	–	–	–	–	–	–
Cc1cc(O)c(C(C)C)cc1C1(c2cc(C(C)C)c(O)cc2C)OC(=O)c2ccccc21	–	253 °C	–	–	–	–	–	–
Cc1ccc(C(=O)NN)cc1	–	117 °C	–	–	–	–	–	–
CCCCOC(=O)c1ccccc1	250 °C	-22.4 °C	–	–	2.1	-2	–	–
CCCCS/C(=N\c1cccnc1)SCc1ccc(C(C)(C)C)cc1	–	32 °C	–	–	–	–	–	–
O=C(O)c1c2ccccc2cc2ccccc12	–	–	–	–	2.74	–	–	–
CCCCCCCCCCCC[N+](C)(C)Cc1ccccc1	–	–	not readily biodegradable	–	–	–	–	–
Cc1ccccc1C=Cc1ccccc1C	–	83 °C	–	–	–	–	–	–
C=Cc1ccc(F)cc1	–	-34.5 °C	–	–	–	–	–	–
CC(C)(C)C(C)(C)C	106 °C	101 °C	–	–	–	1.32	–	–
Oc1cccc(Nc2ccccc2)c1	340 °C	81.5 °C	–	–	–	–	–	–
CCNc1nc(Cl)nc(NC(C)(C)C#N)n1	–	168 °C	–	–	2.28	-6.86	–	–
C1=CCCC=CCCC=CCC1	240 °C	-9.25 °C	not readily biodegradable	–	–	–	–	–
CC(Br)C(=O)c1ccccc1 (stereo not drawn)	248 °C	–	–	–	–	–	–	–
CC(C)CCC[C@H](C)O	174 °C	-105 °C	–	–	–	–	–	–
CN1Cc2c(ccc3c2OCO3)[C@@H]2[C@H]1c1cc3c(cc1C[C@@H]2O)OCO3	–	136 °C	–	–	–	–	–	–
FCCBr	71.5 °C	–	–	–	–	–	–	–
O=CC1CCCO1 (stereo not drawn)	142 °C	–	–	–	–	–	–	–

SMILES	boiling point	melting point	ready biodegradability	log10 Koa	log10 Koc (L/kg)	log10 vapour pressure (mmHg)	log10 biodegradation half-life (days)	log10 Henry constant (atm·m³/mol)
CCOC(=O)C(O)(c1ccc(Cl)cc1)c1ccc(Cl)cc1	–	37 °C	not readily biodegradable	–	3.3	-5.66	–	–
Clc1ccc(C(Cl)Cl)c(Cl)c1Cl	278 °C	84 °C	–	–	–	–	–	–
CCCCCCCCCCCCCCI	–	–	–	–	–	-3.85	–	–
O=C(c1ccccc1)c1cccnc1	307 °C	38 °C	–	–	–	–	–	–
O=[N+]([O-])c1ccc(O)cc1O	–	122 °C	–	–	–	–	–	–
O=C(O)C(F)(F)C(F)(F)C(F)(F)C(F)(F)C(F)(F)C(F)(F)C(F)(F)C(F)(F)C(F)(F)C(F)(F)C(F)(F)F	249 °C	108 °C	not readily biodegradable	–	–	–	–	–
CC(=O)CCCCBr	216 °C	–	–	–	–	–	–	–
CC(Br)C(Br)CBr (stereo not drawn)	220 °C	-19 °C	–	–	–	–	–	–
C=C[Si](C)(C)OCC	99 °C	–	–	–	–	–	–	–
CCN(CC)c1ccc(C)cc1	229 °C	–	–	–	–	–	–	–
CC1CCC(O)CC1 (stereo not drawn)	172 °C	–	–	–	–	–	–	–
CC(=O)NCCO	–	16 °C	–	–	–	–	–	–
Cc1c(N)c(=O)n(-c2ccccc2)n1C	–	109 °C	–	–	–	–	–	–
Nc1ccc(/N=N/c2ccc(N)cc2)cc1	–	250 °C	–	–	–	–	–	–
NNc1c(F)c(F)cc(F)c1F	–	92 °C	–	–	–	–	–	–
O=C(O)CS(=O)(=O)CC(=O)O	–	182 °C	–	–	–	–	–	–
CCC(C)c1ccc(N)cc1 (stereo not drawn)	238 °C	–	–	–	–	–	–	–
CC(=O)OCC1CCCO1 (stereo not drawn)	193 °C	–	–	–	–	–	–	–
CO[C@H]1C=CO[C@@]2(C)Oc3c(C)c(O)c4c(O)c(cc(O)c4c3C2=O)NC(=O)C(C)=CC=C[C@H](C)[C@H](O)[C@@H](C)[C@@H](O)[C@@H](C)[C@H](OC(C)=O)[C@@H]1C	–	300 °C	–	–	–	–	–	–
Nc1ccc(C=O)cc1	–	71.5 °C	–	–	–	–	–	–
CCCCCCCCCCCCCCCC(C)=O	320 °C	48 °C	–	–	–	–	–	–
O=C(O)c1ccccc1-c1ccccc1C(=O)O	–	234 °C	readily biodegradable	–	–	–	–	–
CNCCNC	120 °C	–	–	–	–	–	–	–
CC(=O)c1ccc([N+](=O)[O-])cc1	–	81.8 °C	–	–	–	–	–	–
OCc1ccncc1	–	53 °C	–	–	–	–	–	–

SMILES	boiling point	melting point	ready biodegradability	log10 Koa	log10 Koc (L/kg)	log10 vapour pressure (mmHg)	log10 biodegradation half-life (days)	log10 Henry constant (atm·m³/mol)
NCCCCCCO	–	57 °C	–	–	–	-2.62	–	–
CCCCc1ccc(C(=O)O)nc1	–	97 °C	–	–	–	–	–	–
Cc1c(O)ccc(O)c1C	–	224 °C	–	–	–	–	–	–
O=[N+]([O-])c1c(Cl)cccc1-c1c[nH]cc1Cl	–	124 °C	–	–	–	–	–	–
CCC(CC)(CC)C(C)C	172 °C	–	–	–	–	–	–	–
CCCN(CC)CC1COC2(CCC(C(C)(C)C)CC2)O1 (stereo not drawn)	–	–	–	–	–	-3.89	–	–
CCC(C)(C)CC(C)C	131 °C	-113 °C	–	–	–	1.13	–	–
Clc1cc2oc3cc(Cl)c(Cl)c(Cl)c3c2cc1Cl	–	225 °C	–	–	–	-8.76	–	–
Cc1cc(=O)nc(C(C)C)[nH]1	–	173 °C	not readily biodegradable	–	–	–	–	–
Brc1ccccc1Br	225 °C	7.1 °C	–	–	–	–	–	–
CCCC(=O)Oc1ccccc1	225 °C	–	–	–	–	–	–	–
CC(C)NCC(O)COc1ccc(O)cc1 (stereo not drawn)	–	128 °C	–	–	–	–	–	–
C=CC[C@]1(O)CC[C@H]2[C@@H]3CCC4=CCCC[C@@H]4[C@H]3CC[C@@]21C	–	80 °C	–	–	–	–	–	–
Oc1nc(O)nc(O)n1	–	360 °C	readily biodegradable	–	–	–	–	–
N#Cc1c(F)c(F)c(F)c(F)c1F	162 °C	2.4 °C	–	–	–	–	–	–
CCCCCCCC(=O)CCCCCCC	291 °C	43 °C	–	–	–	-3.39	–	–
CC(CCO)CCCC(C)(C)O (stereo not drawn)	265 °C	–	–	–	–	–	–	–
CCCCCCCCCCCCCCCCCC	316 °C	28.2 °C	readily biodegradable	–	–	-3.47	1.32	–
CN1CCOCC1	116 °C	–	–	–	–	–	–	–
S=C([S-])[S-]	–	-30 °C	–	–	–	–	–	–
CC(=O)Nc1ccc(C#N)cc1	–	207 °C	–	–	–	–	–	–
Cc1cccc2c(C)cccc12	265 °C	82 °C	–	–	–	-2.3	–	-3.46
CCCCC(C)(C)CC	137 °C	–	–	–	–	–	–	–
O=c1cccc[nH]1	280 °C	108 °C	readily biodegradable	–	–	–	–	–
C1CC2CC1C1OC21 (stereo not drawn)	–	123 °C	–	–	–	–	–	–

SMILES	boiling point	melting point	ready biodegradability	log10 Koa	log10 Koc (L/kg)	log10 vapour pressure (mmHg)	log10 biodegradation half-life (days)	log10 Henry constant (atm·m³/mol)
Cc1cc(Cl)c2ccccc2n1	270 °C	42.5 °C	–	–	–	–	–	–
C=C(C)C(=O)OCC	117 °C	–	–	–	–	1.31	–	–
O=C1CCCCN1	256 °C	39.5 °C	–	–	–	-2.36	–	–
Nc1c(F)c(F)c(F)c(F)c1F	153 °C	35.5 °C	–	–	–	–	–	–
CC(=O)OCCCCOC(C)=O	229 °C	12 °C	–	–	–	–	–	–
CCC(=O)OC/C=C(\C)CCC=C(C)C	253 °C	–	–	–	–	–	–	–
O=Cc1cccc(C=O)c1	246 °C	89.5 °C	–	–	–	–	–	–
CC(C)c1cc(Oc2ccccc2)cc(C(C)C)c1NC(=S)NC(C)(C)C	–	146 °C	–	–	–	–	–	–
O[C@@H]1CCc2ccccc2C1	–	15.5 °C	–	–	–	–	–	–
CC(C)CCCC(C)C	135 °C	-103 °C	–	–	–	–	–	–
Clc1cnccn1	154 °C	–	–	–	–	–	–	–
Nc1cccc2ccccc12	301 °C	49.2 °C	not readily biodegradable	–	3.51	-2.38	–	-6.95
Cc1cc(C)nc(N)n1	–	152 °C	–	–	–	–	–	–
CCN(CC)CCNc1ccc(C)c2sc3ccccc3c(=O)c12.Cl	–	196 °C	–	–	–	–	–	–
CCCCCCCCCCCCCC(=O)N(CCO)CCO	–	–	readily biodegradable	–	–	–	–	–
CC(=O)CCC(=O)OC(C)C	209 °C	–	–	–	–	–	–	–
CC[Si](Cl)(Cl)Cl	100 °C	-106 °C	–	–	–	1.67	–	–
OCC(Br)CBr (stereo not drawn)	–	–	–	–	–	-1.04	–	–
CC(C)=CCC1=C(O)C(=O)c2ccccc2C1=O	–	140 °C	–	–	–	–	–	–
CC(C)OP(=O)(OC(C)C)SCc1ccccc1	–	–	–	–	2.26	-4.39	–	–
CC1(C)CCC(Cc2ccc(Cl)cc2)C1(O)Cn1cncn1 (stereo not drawn)	–	112 °C	–	–	–	-7.03	–	–
FC(F)(F)C(F)(F)F	-78.1 °C	-101 °C	–	–	–	4.4	–	1.31
CCS(=O)(=O)CCn1c([N+](=O)[O-])cnc1C	–	128 °C	–	–	–	–	–	–
COc1cc(CCN)cc(OC)c1OC	–	35.5 °C	–	–	–	–	–	–
CCCCCCCCCBr	–	–	–	–	–	-0.921	–	–

SMILES	boiling point	melting point	ready biodegradability	log10 Koa	log10 Koc (L/kg)	log10 vapour pressure (mmHg)	log10 biodegradation half-life (days)	log10 Henry constant (atm·m³/mol)
CCC(C)=CCl	96.5 °C	–	–	–	–	–	–	–
COC(=O)Nc1nc2cc(C(=O)C3CC3)ccc2[nH]1	–	250 °C	–	–	–	–	–	–
CCN(CC)c1ccccc1C	209 °C	-60 °C	–	–	–	–	–	–
O=C1C2CC=CCC2C(=O)N1SC(Cl)(Cl)Cl (stereo not drawn)	–	178 °C	not readily biodegradable	–	2.3	-7.05	–	–
CC(C)CC(C)(C#N)N=NC(C)(C#N)CC(C)C (stereo not drawn)	–	–	not readily biodegradable	–	–	–	–	–
CCOc1ccc(OCC)cc1	246 °C	72 °C	–	–	–	–	–	–
COC1(C)CC(c2ccccc2)c2c(c3ccccc3oc2=O)O1 (stereo not drawn)	–	166 °C	–	–	–	–	–	–
Oc1cccc(Cl)c1Cl	206 °C	58 °C	not readily biodegradable	–	2.66	-1.24	–	–
Cc1cc(C)c(C)cn1	188 °C	–	–	–	–	–	–	–
Nc1ncnc2c1ncn2[C@]1(CO)O[C@H](CO)[C@@H](O)[C@H]1O	–	212 °C	–	–	–	–	–	–
ClCC(CCl)(CCl)CCl	–	97 °C	–	–	–	–	–	–
CNC(=O)Oc1cc(C)c(N(C)C)c(C)c1	–	85 °C	–	–	2.48	–	–	–
FC(OC(F)(F)C(F)(F)C(F)(F)F)C(F)(F)F (stereo not drawn)	41 °C	–	–	–	–	–	–	–
COc1ccc(CCCO)cc1	–	26 °C	–	–	–	–	–	–
Fc1c(F)c(F)c(S)c(F)c1F	143 °C	-24 °C	–	–	–	–	–	–
NC[C@H](O)C(=O)O	–	235 °C	–	–	–	–	–	–
CC1(O)CCC(C(C)(C)O)CC1 (stereo not drawn)	–	158 °C	–	–	–	–	–	–
Clc1cccc(Cl)c1-c1ccccc1	–	–	–	–	–	–	–	-3.64
CCOC(=O)c1ccccc1O	232 °C	1 °C	readily biodegradable	–	–	-1.07	–	–
O=C(O)COc1ccc(F)cc1	–	104 °C	–	–	–	–	–	–
CC1=CCC(C(=O)O)C1(C)C (stereo not drawn)	242 °C	40.5 °C	–	–	–	–	–	–
CSC(C)C	84.8 °C	-102 °C	–	–	–	1.9	–	–
C=CC#CCCC	110 °C	–	–	–	–	–	–	–
CN(C)c1ccc(N=O)cc1	–	92.5 °C	–	–	–	–	–	–

same assay, conditions: fish

SMILES	log10 BCF	log10 biotransformation half-life (days)
Oc1c(Cl)cc(Cl)c(Cl)c1Cc1c(O)c(Cl)cc(Cl)c1Cl	2.07	–
C1=CCCC=CCCC=CCC1	3.92	1.74
CCOC(=O)C(O)(c1ccc(Cl)cc1)c1ccc(Cl)cc1	2.68	-0.08
Clc1ccc2c(oc3c(Cl)c(Cl)c(Cl)c(Cl)c32)c1Cl	2.78	0.43
Brc1cc(Br)c(Oc2c(Br)c(Br)c(Br)c(Br)c2Br)c(Br)c1	5.75	–
O=[N+]([O-])c1cccc(S(=O)(=O)[O][Na])c1	0.7	–
Clc1cc2oc3cc(Cl)c(Cl)c(Cl)c3c2cc1Cl	3.58	–
Cc1cc(=O)nc(C(C)C)[nH]1	0.26	–
Oc1nc(O)nc(O)n1	-0.3	–
Nc1cccc2ccccc12	1.4	-0.24
CC(C)OP(=O)(OC(C)C)SCc1ccccc1	0.94	-1.2
CC1(C)CCC(Cc2ccc(Cl)cc2)C1(O)Cn1cncn1 (stereo not drawn)	–	0.23
N#Cc1nn(-c2c(Cl)cc(C(F)(F)F)cc2Cl)c(N)c1S(=O)(=O)C(F)(F)F	–	1.05
O=C1C2CC=CCC2C(=O)N1SC(Cl)(Cl)Cl (stereo not drawn)	1.98	–
Oc1cccc(Cl)c1Cl	1.13	–
CNC(=O)Oc1cc(C)c(N(C)C)c(C)c1	1.42	–
